PubChem BioAssay (NCI)
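Grown in 96-well plates, cells were treated for 48 hours with each compound at five concentrations. Insufficient inhibition: endpoint recorded as highest concentration tested. TGI: concentration producing complete growth inhibition.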 Where a SMILES comes first, the peptide text is derived from it. [ ]: non-standard residue; d: D form. The star is where a group is joined. NMeF = CN[CH](Cc1ccccc1)C(=O)O; NMeV = CN[CH](C(=O)O)C(C)C; Boc = CC(C)(C)OC(=O)*; OBn = c1ccc(CO*)cc1

Experiments:
Assay in all cases: DTP human tumour cell line panel, 48 h
BT-549 breast = test system: BT-549 breast
M14 melanoma = test system: M14 melanoma
MDA-MB-231 breast = test system: MDA-MB-231 breast
MDA-N = test system: MDA-N
OVCAR-3 ovarian = test system: OVCAR-3 ovarian
OVCAR-4 ovarian = test system: OVCAR-4 ovarian
OVCAR-5 ovarian = test system: OVCAR-5 ovarian
PC-3 prostate = test system: PC-3 prostate
RPMI-8226 leukemia = test system: RPMI-8226 leukemia
SF-268 CNS = test system: SF-268 CNS
SK-MEL-28 melanoma = test system: SK-MEL-28 melanoma
SNB-19 CNS = test system: SNB-19 CNS
SW-620 colon = test system: SW-620 colon
HL-60(TB) leukemia = test system: HL-60(TB) leukemia
HT29 colon = test system: HT29 colon
SR leukemia = test system: SR leukemia

Brc1cccc(C2(CCCC3(c4cccc(Br)n4)OCCO3)OCCO2)n1
TGI (BT-549 breast): > 100 µM | TGI (M14 melanoma): > 100 µM | TGI (MDA-MB-231 breast): > 100 µM | TGI (MDA-N): > 100 µM | TGI (OVCAR-3 ovarian): > 100 µM | TGI (OVCAR-4 ovarian): > 100 µM | TGI (OVCAR-5 ovarian): > 100 µM | TGI (PC-3 prostate): > 100 µM | TGI (RPMI-8226 leukemia): > 100 µM | TGI (SF-268 CNS): 71.5 µM | TGI (SK-MEL-28 melanoma): > 100 µM | TGI (SNB-19 CNS): > 100 µM | TGI (SW-620 colon): > 100 µM

CCOC(OCC)C(CCc1ccccc1)c1c(N)nc(N)[nH]c1=O (centres undefined)
TGI (BT-549 breast): > 100 µM | TGI (HL-60(TB) leukemia): > 100 µM | TGI (HT29 colon): > 100 µM | TGI (M14 melanoma): > 100 µM | TGI (MDA-MB-231 breast): > 100 µM | TGI (OVCAR-3 ovarian): > 100 µM | TGI (OVCAR-4 ovarian): > 100 µM | TGI (OVCAR-5 ovarian): 73.3 µM | TGI (PC-3 prostate): > 100 µM | TGI (RPMI-8226 leukemia): > 100 µM | TGI (SF-268 CNS): > 100 µM | TGI (SK-MEL-28 melanoma): > 100 µM | TGI (SNB-19 CNS): > 100 µM | TGI (SR leukemia): > 100 µM | TGI (SW-620 colon): > 100 µM

CC1=CC(=O)c2cccc(NC3=NCCO3)c21
TGI (HL-60(TB) leukemia): 41.2 µM | TGI (HT29 colon): > 100 µM | TGI (M14 melanoma): > 100 µM | TGI (MDA-MB-231 breast): > 100 µM | TGI (MDA-N): > 100 µM | TGI (OVCAR-3 ovarian): 90.4 µM | TGI (OVCAR-4 ovarian): > 100 µM | TGI (OVCAR-5 ovarian): > 100 µM | TGI (PC-3 prostate): > 100 µM | TGI (RPMI-8226 leukemia): > 100 µM | TGI (SF-268 CNS): > 100 µM | TGI (SK-MEL-28 melanoma): > 100 µM | TGI (SNB-19 CNS): > 100 µM | TGI (SR leukemia): 91.6 µM | TGI (SW-620 colon): > 100 µM

Cc1nnc(N)nc1/C=C\c1cccs1
TGI (BT-549 breast): > 100 µM | TGI (HL-60(TB) leukemia): 31.7 µM | TGI (HT29 colon): 41.4 µM | TGI (M14 melanoma): 36.9 µM | TGI (MDA-MB-231 breast): > 100 µM | TGI (OVCAR-4 ovarian): 74.2 µM | TGI (OVCAR-5 ovarian): 68.3 µM | TGI (PC-3 prostate): 56.4 µM | TGI (RPMI-8226 leukemia): 55.4 µM | TGI (SF-268 CNS): 37.8 µM | TGI (SK-MEL-28 melanoma): > 100 µM | TGI (SNB-19 CNS): > 100 µM | TGI (SR leukemia): > 100 µM | TGI (SW-620 colon): > 100 µM

[N-]=[N+]=C1CNC(=O)NC1=O
TGI (HL-60(TB) leukemia): > 100 µM | TGI (HT29 colon): > 100 µM | TGI (M14 melanoma): > 100 µM | TGI (MDA-MB-231 breast): > 100 µM | TGI (MDA-N): > 100 µM | TGI (OVCAR-3 ovarian): > 100 µM | TGI (OVCAR-4 ovarian): > 100 µM | TGI (OVCAR-5 ovarian): > 100 µM | TGI (PC-3 prostate): > 100 µM | TGI (RPMI-8226 leukemia): > 100 µM | TGI (SF-268 CNS): > 100 µM | TGI (SK-MEL-28 melanoma): > 100 µM | TGI (SNB-19 CNS): > 100 µM | TGI (SW-620 colon): > 100 µM

Cc1ccccc1NC(=S)N=Nc1c(O)[nH]c2ccccc12
TGI (HL-60(TB) leukemia): > 100 µM | TGI (HT29 colon): > 100 µM | TGI (M14 melanoma): > 100 µM | TGI (MDA-MB-231 breast): > 100 µM | TGI (MDA-N): > 100 µM | TGI (OVCAR-3 ovarian): > 100 µM | TGI (OVCAR-4 ovarian): > 100 µM | TGI (OVCAR-5 ovarian): > 100 µM | TGI (PC-3 prostate): > 100 µM | TGI (RPMI-8226 leukemia): > 100 µM | TGI (SF-268 CNS): 65.3 µM | TGI (SK-MEL-28 melanoma): 36.7 µM | TGI (SNB-19 CNS): > 100 µM | TGI (SR leukemia): > 100 µM | TGI (SW-620 colon): > 100 µM

CC(C)C(NC(=O)OC(C)(C)C)C(=O)N(C)C(Cc1ccccc1)C(=O)N(C)C(C(=O)N(C)C(C(=O)OCc1ccccc1)C(C)C)C(C)C (centres undefined) (Boc-V[NMeF][NMeV][NMeV]-OBn; configuration not given here)
TGI (HL-60(TB) leukemia): > 100 µM | TGI (HT29 colon): > 100 µM | TGI (M14 melanoma): > 100 µM | TGI (OVCAR-3 ovarian): > 100 µM | TGI (RPMI-8226 leukemia): > 100 µM | TGI (SF-268 CNS): > 100 µM | TGI (SNB-19 CNS): > 100 µM | TGI (SR leukemia): > 100 µM | TGI (SW-620 colon): > 100 µM

C=CCC1NCCC2=C1C(S(=O)(=O)c1ccc(C)cc1)c1ccccc12 (centres undefined)
TGI (HT29 colon): 29.4 µM | TGI (M14 melanoma): 26.8 µM | TGI (MDA-MB-231 breast): 25.5 µM | TGI (MDA-N): 20.2 µM | TGI (OVCAR-3 ovarian): 26 µM | TGI (OVCAR-4 ovarian): 25.7 µM | TGI (OVCAR-5 ovarian): 33.2 µM | TGI (PC-3 prostate): 22.2 µM | TGI (RPMI-8226 leukemia): 27.8 µM | TGI (SF-268 CNS): 34.7 µM | TGI (SK-MEL-28 melanoma): 26.6 µM | TGI (SNB-19 CNS): 33.2 µM | TGI (SR leukemia): 38.4 µM | TGI (SW-620 colon): 29.4 µM
